The test system of one data set is Mbnl1 mRNA. Nature of the data set: Mbnl1 transcript levels in muscle by qRT-PCR. The format is in vivo, mouse. As to conditions: HSALR mice, 9.2 mg/kg (mean) i.v. every 2 weeks x3, day 45; quadriceps, vs PBS-treated HSALR. The procedure: (§1) Total RNA from murine gastrocnemius and quadriceps muscle was isolated using the miRNeasy Mini Kit (QIAGEN, Hilden, Germany) according to the manufacturer's instructions. One microgram of RNA was digested with DNase I (Invitrogen, Carlsbad, CA) and reverse transcribed with SuperScript II (Invitrogen) using random hexanucleotides. For subsequent PCR reactions, 20 ng of cDNA was used with GoTaq polymerase (Promega). Specific primers were used to analyze the alternative splicing of Nfix, Atp2a1, and Clcn1 in mouse samples (both muscles). Gapdh levels established the endogenous reference levels using 0.2 ng of cDNA. […] PSR index was defined as value%SI minus X %DSI , divided by […] (SI, splicing inclusion of each sample; DSI, disease splicing inclusion; HSI, healthy splicing inclusion). Overall, PSR indicates the amount in both muscles analyzed. […] Commercial TaqMan probes (QIAGEN) were used for mouse (Mbnl1 and Mbnl2; FAM-labeled probes) and reference (GAPDH; MAX-labeled probe) genes. Results were normalized to Gapdh endogenous gene expression. Expression levels were measured using a QuantStudio 5 Real-Time PCR System (Applied Biosystems, Foster City, CA). […] Mouse handling and experimental procedures followed the European law regarding laboratory animal care and experimentation (2003/65/C.E.) and were approved by Conselleria de Agricultura, […] […]

Another data set deals with DM1 cells. Nature of the data set: Cell growth inhibition of DM1 cells, gymnosis vs transfection at EC50. The format is cell-based, human. Particulars: at the EC50 concentration. The procedure: Immortalized MyoD-inducible (doxycycline) DM1 and control fibroblasts were kindly provided by Dr Furling (Institute of Myology, Paris, France).[38] For the activity assay, cells were seeded in 6-well plates at a density of 8 × 10^4 cells/well and grown in DMEM with 4.5 g/L glucose, 1% P/S, and 10% FBS (Sigma, St. Louis, MO). To transdifferentiate fibroblasts into myoblasts by inducing MyoD expression, the cells were plated in muscle differentiation medium containing DMEM with 4.5 g L^−1 glucose, 1% P/S, 2% horse serum, 1% apo-transferrin (10 mg mL^−1), 0.1% insulin (10 mg mL^−1), and 0.02% doxycycline (10 mg mL^−1). In all cases, the cells were grown at 37°C in a humidified atmosphere containing 5% CO2. Transdifferentiation was induced at day 0, and transfection was performed by lipofection with X-tremeGENE HP (Roche, Basel, Switzerland) 24 h later, with antimiRs and test compounds in the cell medium at different concentrations (from 0.4 nM to 5 μM). […]
Cells seeded at 10^5 cells/mL in 96-well plates were transfected 24 h later with antimiRs as described previously.[20] After 96 h, cell proliferation was measured using the CellTiter 96 AQueous Non-Radioactive Cell Proliferation Assay (Promega, Madison, WI). Absorbance levels were determined using an Infinite M200 PRO plate reader (Tecan, Männedorf, Switzerland) and the TC50 was calculated using non-linear least-squares regression.

The subject of a further data set is Mbnl2 mRNA. Kind of data set: Mbnl2 transcript levels in muscle by qRT-PCR. It is filed as in vivo, mouse. As to conditions: HSALR mice, 9.2 mg/kg (mean) i.v. every 2 weeks x3, day 45; gastrocnemius, vs PBS-treated HSALR. The procedure: as §1
The test system of a further data set is miR-23b. Nature of the data set: Functional miR-23b levels in gastrocnemius and quadriceps by qRT-PCR. The format is in vivo, mouse. As to conditions: HSALR mice, 9.2 mg/kg (mean) i.v. every 2 weeks x3, day 45, vs PBS-treated HSALR. The protocol: (§2) miRNA expression in muscle tissues was quantified using specific miRCURY-locked nucleic acid microRNA PCR primers (QIAGEN) according to the manufacturer's instructions. […] Expression levels were measured using a QuantStudio 5 Real-Time PCR System (Applied Biosystems, Foster City, CA). […] Mouse handling and experimental procedures followed the European law regarding laboratory animal care and experimentation (2003/65/C.E.) and were approved by Conselleria de Agricultura, […] (reference no. A1539961490857). We used homozygous transgenic HSA^LR (line 20 b) mice,[90] which were kindly provided by Dr Thornton (Rochester, NY) and were housed and bred in our animal facility. […] The mice were randomly allocated to the different treatments as follows: in each cage, each mouse was ear-marked as it was taken out, and each mouse was then assigned to a different treatment. Animals were injected biweekly intravenously with 150 μL of 1× PBS vehicle (controls; […] Mice were sacrificed 45 days after the first injection and the tissues of interest were frozen in liquid nitrogen for the molecular and histological assays. All the mice used in this study ranged from 5 to 5.5 months of age and all were males.
In general terms: In qPCR the cycle at which signal appears reflects the starting amount.

In the next data set the test system is miR-218. Nature of the data set: Functional miR-218 levels in gastrocnemius and quadriceps by qRT-PCR. The format is in vivo, mouse. Particulars: HSALR mice, 9.2 mg/kg (mean) i.v. every 2 weeks x3, day 45, vs PBS-treated HSALR. The procedure: as §2
In the next data set the test system is HSALR mice. Kind of data set: Electromyography, myotonia grade. It is filed as in vivo, mouse. Particulars: 9.2 mg/kg (mean) i.v. every 2 weeks x3, 5-point scale, quadriceps of both hind limbs. From the text: Mouse handling and experimental procedures followed the European law regarding laboratory animal care and experimentation (2003/65/C.E.) and were approved by Conselleria de Agricultura, […] (reference no. A1539961490857). We used homozygous transgenic HSA^LR (line 20 b) mice,[90] which were kindly provided by Dr Thornton (Rochester, NY) and were housed and bred in our animal facility. […] The mice were randomly allocated to the different treatments as follows: in each cage, each mouse was ear-marked as it was taken out, and each mouse was then assigned to a different treatment. Animals were injected biweekly intravenously with 150 μL of 1× PBS vehicle (controls; […] Mice were sacrificed 45 days after the first injection and the tissues of interest were frozen in liquid nitrogen for the molecular and histological assays. All the mice used in this study ranged from 5 to 5.5 months of age and all were males. Electromyography was performed before the treatment, at the halfway point and time of sacrifice under general anesthesia, as described previously.[18] The determination was performed blindly to eliminate bias.

We go through 3 substances from paper PMC10514136, “Peptide-conjugated antimiRs improve myotonic dystrophy type 1 phenotypes by promoting endogenous MBNL1 expression” (Molecular Therapy. Nucleic Acids, 2023).

As for “6aKC-23b (antisense GGUAAUCCCUGGCAAUGUGAU; all phosphorodiamidate morpholino (PMO), T or U not given here; Pip6aKC peptide conjugated)”, the “Mbnl1 mRNA levels” value in the data set on Mbnl1 mRNA was “significant increases in quadriceps”.
As for “9b2KC-23b (antisense GGUAAUCCCUGGCAAUGUGAU; all phosphorodiamidate morpholino (PMO), T or U not given here; Pip9b2KC peptide conjugated)”, the “toxicity (cell growth inhibition), gymnosis compared with transfection” value in the data set on DM1 cells is recorded as “toxicity was significantly reduced”. Also, in the data set with Mbnl2 mRNA, the “relative expression of Mbnl2” value was determined as 2.65 fold.
With “TCTTACCTCAGTTACAATTTA-Pip9b2 [Scramble, reference compound]”, in the data set on miR-23b, the “levels of functional miR-23b” value was “did not reduce functional levels”. For the same substance, the “levels of functional miR-218” value in the data set with miR-218 is given as “did not reduce functional levels”. In addition, the “myotonia (electromyography), change at day 45” value in the data set with HSALR mice is “myotonia remained unchanged”.
